Among the data in publication PMC12434536, “Radiosynthesis and Preclinical Evaluation of a Carbon-11 Labeled Phosphodiesterase 7 Inhibitor for PET Neuroimaging” (ACS Medicinal Chemistry Letters, 2025) are fraction unbound values, retold here.

The data set can be described thus: Plasma protein binding (free fraction). In kind it is in vitro ADME. Particulars: mouse, rat, and human plasma. The procedure: The general procedure for lipophilicity measurement was previously described, 4 with minor modification in this work. Briefly, the measurement of LogD value was carried out by mixing [11C]27 (radiochemical purity > 99%) with n-octanol (3.0 g) and PBS (0.1 M, 3.0 g) in a test tube. Both n-octanol and PBS were pre-saturated with each other prior to use. The tube was first vortexed for 5 min, followed by centrifugation (~3500-4000 rpm) for an additional 5 min. PBS and n-octanol were aliquoted, weighed and the radioactivity in each component was measured using a Cobra Model 5002/5003 gamma counter. The LogD was determined by Log [ratio of radioactivity in n-octanol and aqueous layer, respectively] (n = […]
For the evaluation of plasma protein binding,5 55.5 MBq radiotracer was added to 150 μL of plasma, which was pre-incubated under 37 °C for 5 min (n = 3). The samples were incubated at 37 °C for 10 min. To each 150 μL of radiotracer-plasma solution was added 300 μL of ice-cold PBS and all samples were briefly vortexed. […] The radioactivity (in Becquerel) was measured in the protein fraction (Aprotein), filtrate, and filter unit using a gamma counter (Wizard, PerkinElmer), Atotal was calculated as the sum of radioactivity, and the free fraction f u was calculated according to the following eq.: f u = 1-

SMILES strings stand for the structures.

`COc1ccc(Cl)c2c1C1(CCCCC1)NC(=O)N2` [Compound 27] yielded a fraction unbound at 10 min of at least 0.01.
